# Values of other authors as cited in patent publication US6335015B1, “Method of the prophylactic treatment of mastitis” (Astacarotene AB, priority 1997, dated 2002).
# Experiments:
# [1] = biological tests
# sows = conditions: feed supplemented with astaxanthin prior to parturition and during lactation
structure (smiles),measurement,setting,value
CC1=C(/C=C/C(C)=C/C=C/C(C)=C/C=C/C=C(C)/C=C/C=C(C)/C=C/C2=C(C)C(=O)[C@@H](O)CC2(C)C)C(C)(C)C[C@H](O)C1=O [astaxanthin],antioxidative properties compared to other carotenoids,[1],clearly the best antioxidative properties
same,piglets born alive,sows,more piglets born alive
